Among the data in patent US5712397A, “Amino acid derivatives, processes for preparing them and pharmaceutical compositions containing these compounds” (Boehringer Ingelheim GmbH, priority 1994, dated 1998) are IC50 values, retold here.

Each structure is given as a SMILES string.

The target in this assay is T1, NK1-receptor (substance P-receptor) (Homo sapiens, UniProt P25103).
T1 construct: expressed in transfected cells; host or cells: IM-9 human lymphoblastoma cells
The assay is described as follows: NK1-receptor affinity: displacement of 125I-labelled substance P on human lymphoblastoma cells (IM-9) with cloned NK1-receptors. The class given is binding. The protocol: The receptor affinity for the NK1 -receptor (substance P-receptor) was determined on human lymphoblastoma cells (IM-9) with cloned NK1 -receptors, by measuring the displacement of ^125 I-labelled substance p.
(In general: Loss of bound radioactivity is the signal in a displacement assay; it reports binding, not function.)

T1 sequence (P25103 whole entry): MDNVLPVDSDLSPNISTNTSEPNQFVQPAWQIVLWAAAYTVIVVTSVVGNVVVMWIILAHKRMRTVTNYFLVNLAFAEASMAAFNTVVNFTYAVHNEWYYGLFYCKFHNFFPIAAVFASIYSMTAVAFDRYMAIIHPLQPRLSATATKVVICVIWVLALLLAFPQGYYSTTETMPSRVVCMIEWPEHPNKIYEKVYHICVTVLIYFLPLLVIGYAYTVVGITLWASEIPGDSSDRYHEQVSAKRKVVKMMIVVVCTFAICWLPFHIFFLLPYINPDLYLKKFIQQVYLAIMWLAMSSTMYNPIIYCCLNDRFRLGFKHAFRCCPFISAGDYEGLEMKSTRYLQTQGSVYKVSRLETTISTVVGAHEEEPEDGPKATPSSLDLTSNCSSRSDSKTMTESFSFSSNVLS

In the case of `CCc1ccccc1CN1C(=O)C(NC(=O)[C@@H]2C[C@@H](O)CN2C(=O)c2cn(C)c3ccccc23)Cc2cc(OC)c(OC)cc21` (single isomer, unassigned) [Example 6], the IC50 (as a rule, the concentration that gives 50% inhibition) is 0.75 nM. The result for `COc1cc2c(cc1OC)N(Cc1ccccc1Cl)C(=O)C(NC(=O)[C@@H]1C[C@@H](O)CN1C(=O)c1cn(C)c3ccccc13)C2` (single isomer, unassigned) [Example 1] reads 0.4 nM.
